Assay results as given in patent US6352989B1, “Nitrogenous heterocyclic derivatives and medicine thereof” (Eisai Co., Ltd., priority 1998, dated 2002).

Row | Structure (SMILES) | melting point
1 | CNc1nc(-c2cccc(NC(=O)c3ccccc3)c2)c2cc(OC)c(OC)cc2n1 [Example 1, 4-(3-Benzoylaminophenyl)-6,7-dimethoxy-2-methylaminoquinazoline] | 201 to 203 °C
2 | CNc1nc(-c2cccc(NC(=O)c3ccccn3)c2)c2cc(OC)c(OC)cc2n1 [Example 3, 6,7-Dimethoxy-2-methylamino-4-[3-(2-pyridinecarbonylamino)phenyl]quinazoline] | 175 to 177 °C
3 | CNc1nc(-c2cccc(NC(=O)c3cccnc3)c2)c2cc(OC)c(OC)cc2n1 [Example 4, 6,7-Dimethoxy-2-methylamino-4-[3-(3-pyridinecarbonylamino)phenyl]quinazoline] | 251 to 253 °C
4 | CNc1nc(-c2cccc(NC(=O)c3ccc4c(c3)OCO4)c2)c2cc(OC)c(OC)cc2n1 [Example 5, 6,7-Dimethoxy-2-methylamino-4-[3-(3,4-methylenedioxybenzoylamino)phenyl]quinazoline] | 205 to 207 °C
5 | CNc1nc(-c2cccc(NC(=O)Cc3ccccc3)c2)c2cc(OC)c(OC)cc2n1 [Example 6, 6,7-Dimethoxy-2-methylamino 4-[3-(phenylacetylamino)phenyl]quinazoline] | 175 to 177 °C
6 | CNc1nc(-c2cccc(NC(=O)CCc3ccccc3)c2)c2cc(OC)c(OC)cc2n1 [Example 7, 6,7-Dimethoxy-2-methylamino-4-[3-(3-phenylpropanoylamino)phenyl]quinazoline] | 180 to 182 °C
7 | CNc1nc(-c2cccc(NC(=O)c3ccccc3Cl)c2)c2cc(OC)c(OC)cc2n1 [Example 8, 4-[3-(2-Chlorobenzoylamino)phenyl]-6,7-dimethoxy-2-methylaminoquinazoline] | 197 to 199 °C
8 | CNc1nc(-c2cccc(NC(=O)c3cccc(Cl)c3)c2)c2cc(OC)c(OC)cc2n1 [Example 9, 4-[3-(3-Chlorobenzoylamino)phenyl]-6,7-dimethoxy-2-methylaminoquinazoline] | 124 to 126 °C
9 | CNc1nc(-c2cccc(NC(=O)c3ccc(Cl)cc3)c2)c2cc(OC)c(OC)cc2n1 [Example 10, 4-[3-(4-Chlorobenzoylamino)phenyl]-6,7-dimethoxy-2-methylaminoquinazoline] | 193 to 195 °C
10 | CNc1nc(-c2cccc(NC(=O)c3ccccc3OC)c2)c2cc(OC)c(OC)cc2n1 [Example 11, 6,7-Dimethoxy-4-[3-(2-methoxybenzoylamino)phenyl]-2-methylaminoquinazoline] | 194 to 196 °C
11 | CNc1nc(-c2cccc(NC(=O)c3cccc(OC)c3)c2)c2cc(OC)c(OC)cc2n1 [Example 12, 6,7-Dimethoxy-4-[3-(3-methoxybenzoylamino)phenyl]-2-methylaminoquinazoline] | 193 to 195 °C
12 | CNc1nc(-c2cccc(NC(=O)c3ccc(OC)cc3)c2)c2cc(OC)c(OC)cc2n1 [Example 13, 6,7-Dimethoxy-4-[3-(4-methoxybenzoylamino)phenyl]-2-methylaminoquinazoline] | 219 to 221 °C
13 | CNc1nc(-c2cccc(NC(=O)c3ccc(Cl)c(Cl)c3)c2)c2cc(OC)c(OC)cc2n1 [Example 15, 4-[3-(3,4-Dichlorobenzoylamino)phenyl]-6,7-dimethoxy-2-methylaminoquinazoline] | 134 to 136 °C
14 | CNc1nc(-c2cccc(NC(=O)C3CC3)c2)c2cc(OC)c(OC)cc2n1 [Example 16, 4-(3-Cyclopropanoylaminophenyl)-6,7-dimethoxy-2-methylaminoquinazoline] | 205 to 207 °C
15 | CNc1nc(-c2cccc(NC(=O)c3cc(OC)c(OC)c(OC)c3)c2)c2cc(OC)c(OC)cc2n1 [Example 19, 6,7-Dimethoxy-4-methylamino-4-[3-(3,4,5-trimethoxybenzoylamino)phenyl]quinazoline] | 122 to 124 °C
16 | CNc1nc(-c2cccc(NC(=O)c3ccc(OCc4ccccc4)cc3)c2)c2cc(OC)c(OC)cc2n1 [Example 20, 4-[3-(4-Benzyloxybenzoylamino)phenyl]-6,7-dimethoxy-2-methylaminoquinazoline] | 110 to 112 °C
17 | CNc1nc(-c2cccc(NC(=O)c3cccc(OCc4ccccc4)c3)c2)c2cc(OC)c(OC)cc2n1 [Example 22, 4-[3-(3-Benzyloxybenzoylamino)phenyl]-6,7-dimethoxy-2-methylaminoquinazoline] | 110 to 112 °C
18 | CNc1nc(-c2cccc(NC(=O)c3cccc(O)c3)c2)c2cc(OC)c(OC)cc2n1 [Example 23, 6,7-Dimethoxy-4-[-(3-hydroxybenzoylamino)phenyl]-2-methylaminoquinazoline] | 265 to 267 °C
19 | CNc1nc(-c2cccc(NC(=O)c3ccccc3OCc3ccccc3)c2)c2cc(OC)c(OC)cc2n1 [Example 24, 4-[3-(2-Benzyloxybenzoylamino)phenyl]-6,7-dimethoxy-2-methylaminoquinazoline] | 192 to 194 °C
20 | CNc1nc(-c2cccc(NC(=O)c3ccccc3O)c2)c2cc(OC)c(OC)cc2n1 [Example 25, 6,7-Dimethoxy-4-[3-(2-hydroxybenzoylamino)phenyl]-2-methylaminoquinazoline] | 212 to 214 °C
21 | CNc1nc(-c2cccc(NC(=O)c3ccc(SC)cc3)c2)c2cc(OC)c(OC)cc2n1 [Example 26, 6,7-Dimethoxy-2-methylamino-4-[3-(4-methylthiobenzoylamino)phenyl]quinazoline] | 209 to 211 °C

Row | Structure (SMILES) | melting point
22 | CNc1nc(-c2cccc(NC(=O)c3ccc([S+](C)[O-])cc3)c2)c2cc(OC)c(OC)cc2n1 (centres unmarked) [Example 27, 6,7-Dimethoxy-2-methylamino-4-[3-(4-methylsulfinylbenzoylamino)phenyl]quinazoline] | 246 to 248 °C
23 | CNc1nc(-c2cccc(NC(=O)c3ccc(S(C)(=O)=O)cc3)c2)c2cc(OC)c(OC)cc2n1 [Example 28, 6,7-Dimethoxy-2-methylamino-4-[3-(4-methylsulfonylbenzoylamino)phenyl]quinazoline] | 277 to 279 °C
24 | CNc1nc(-c2cccc(NC(=O)c3ccc(Cl)nc3)c2)c2cc(OC)c(OC)cc2n1 [Example 29, 4-[3-(6-Choloronicotinoylamino)phenyl]-6,7-dimethoxy-2-methylaminoquinazoline] | 157 to 159 °C
25 | CNc1nc(-c2cccc(NC(=O)c3ccnc(Cl)c3)c2)c2cc(OC)c(OC)cc2n1 [Example 33, 4-[3-(2-Chloroisonicotinoylamino)phenyl]-6,7-dimethoxy-2-methylaminoquinazoline] | 151 to 153 °C
26 | CNc1nc(-c2cccc(NS(=O)(=O)c3ccccc3)c2)c2cc(OC)c(OC)cc2n1 [Example 35, 4-(3-Benzenesulfonamidephenyl)-6,7-dimethoxy-2-methylaminoquinazoline] | 230 to 232 °C
27 | CNc1nc(-c2cccc(NC(=O)Nc3ccccc3)c2)c2cc(OC)c(OC)cc2n1 [Example 36, 6,7-Dimethoxy-2-methylamino-4-[3-(3-phenylureido)phenyl]quinazoline] | 218 to 220 °C
28 | CNc1nc(-c2cccc(N3C(=O)c4ccccc4C3=O)c2)c2cc(OC)c(OC)cc2n1 [Example 37, 6,7-Dimethoxy-2-methylamino-4-(3-phthalimidephenyl) quinazoline] | 280 to 282 °C
29 | CNc1nc(-c2cccc(NCc3ccccc3)c2)c2cc(OC)c(OC)cc2n1 [Example 38] | 146 to 148 °C
30 | CCCN(Cc1ccccc1)c1cccc(-c2nc(NC)nc3cc(OC)c(OC)cc23)c1 [Example 41, 4-[3-(N-benzyl-N-propylamino)phenyl]-6,7-dimethoxy-2-methylaminoquinazoline] | 75 to 77 °C
31 | CNc1nc(-c2cccc(N(C)C(=O)c3ccccc3)c2)c2cc(OC)c(OC)cc2n1 [Example 42, 4-[3-(N-benzoyl-N-methylamino)phenyl]-6,7-dimethoxy-2-methylaminoquinazoline] | 198 to 200 °C
32 | CNc1nc(-c2cccc(-n3cccc3)c2)c2cc(OC)c(OC)cc2n1 [Example 43, 6,7-Dimethoxy-2-methylamino-4-[3-(1-pyrrolyl)phenyl]quinazoline] | 199 to 201 °C
33 | CNc1nc(-c2cccc(-c3ccccc3)c2)c2cc(OC)c(OC)cc2n1 [Example 46, 4-(3-Biphenylyl)-6,7-dimethoxy-2-methylaminoquinazoline] | 183 to 185 °C
34 | CNc1nc(-c2cccc(-c3cccnc3)c2)c2cc(OC)c(OC)cc2n1 [Example 47, 6,7-Dimethoxy-2-methylamino-4-[3-(3-pyridyl)phenyl]quinazoline] | 186 to 188 °C
35 | CNc1nc(-c2cccc(-c3ccc(C)c(C)c3)c2)c2cc(OC)c(OC)cc2n1 [Example 48, 6,7-Dimethoxy-4-(3′,4′-dimethyl-3-biphenylyl)-2-methylaminoquinazoline] | 149 to 151 °C
36 | CNc1nc(-c2cccc(-c3ccc4nccn4c3)c2)c2cc(OC)c(OC)cc2n1 [Example 50, 6,7-Dimethoxy-4-[3-(imidazo[1.2-a]pyridine-6-yl)phenyl]-2-methylaminoquinazoline] | 237 to 239 °C
37 | CNc1nc(-c2cccc(-c3cccc([S+](C)[O-])c3)c2)c2cc(OC)c(OC)cc2n1 (centres unmarked) [Example 55, 6,7-Dimethoxy-2-methylamino-4-(3-methylsulfinyl-3-biphenylyl)quinazoline] | 163 to 165 °C
38 | CNc1nc(-c2cccc(-c3cncc(OC)c3)c2)c2cc(OC)c(OC)cc2n1 [Example 57, 6,7-Dimethoxy-4-[3-(5-methoxy-3-pyridyl)phenyl]-2-methylaminoquinazoline] | 225 to 227 °C
39 | CNc1nc(-c2cccc(-c3cncc([S+](C)[O-])c3)c2)c2cc(OC)c(OC)cc2n1 (centres unmarked) [Example 59, 6,7-Dimethoxy-2-methylamino-4-[3-(5-methylsulfinyl-3-pyridyl)phenyl]quinazoline] | 208 to 210 °C
40 | CNc1nc(-c2cccc(CCc3ccccc3)c2)c2cc(OC)c(OC)cc2n1 [Example 66, 6,7-Dimethoxy-2-methylamino-4-[3-(2-phenylethyl)phenyl]quinazoline] | 95 to 97 °C
41 | CNc1nc(-c2cccc(C#Cc3cccnc3)c2)c2cc(OC)c(OC)cc2n1 [Example 67, 6,7-Dimethoxy-2-methylamino-4-[3-[2-(3-pyridyl)ethynyl]phenyl]quinazoline] | 103 to 105 °C
